Assay results published in patent US20130072532A1, “TOPICAL TRANSDERMAL DEXMEDETOMIDINE COMPOSITIONS AND METHODS OF USE THEREOF” (priority 2010, published 2013).
Like-named read-outs stand apart in the source and are kept apart here.

Legend:
α2-aderenoceptor = conditions: selective α2-adrenoceptor agonist; cited from earlier work
[1] = humans, cited from earlier work
clinical = conditions: human, in vivo
Description: Dexmedetomidine plasma concentration-time data from clinical study # REC-10-006 were used in predicting the steady-state concentration-time profiles resulting from once-daily (QD) and twice-daily (BID) topical application of a 0.25, 0.5, and 1-gram dose. The data from the following 3 subjects were used: 1001, 1004, and 1005. The three subjects participated in the following treatment arms: Treatment A (0.25-gram dose), Treatment C (0.5-gram dose), and Treatment E (1.0-gram dose). Clinical study # REC-10-006 was a single ascending-dose study with multiple treatment arms (Treatments A, B, C, D and E). Plasma samples for drug analysis were taken at pre-dose (0 hour) and at the following specified times after dosing: 0.5, 1, 1.5, 2, 3, 4, 6, 8, 10, 12, 18, 24, 30, 36, and 48 hours. The lower limit of quantification of the bioanalytical assay was 0.02 ng/mL.
All pharmacokinetic parameters were analyzed using compartmental analysis. Dexmedetomidine plasma concentration-time data from Period 1 (REC-10-006) were used in predicting the steady-state concentration-time profiles resulting from once-daily (QD) and twice-daily (BID) topical application of 0.25-, 0.5- and 1.0-gram doses. The data used were from three subjects (Identifiers 1001, 1004, and 1005) who participated in treatment arms A (0.25-gram dose), C (0.5-gram dose), and E (1.0-gram dose). Blood samples for drug analysis were taken at pre-dose and at the following specified times after dosing: 0.25, 0.5, 0.75, 1, 1.5, 2, 2.5, 3, 4, 5, 6, 7, 8, 12, 24, 48, and 72 hours. […] Once the PK parameters were calculated and the single-dose concentrations were generated, the data were imported into WinNonlin™, Version 5.2 (WinNonlin™ Copyright ©2008, Pharsight Corporation), a nonparametric superposition was carried out to predicted the steady-state plasma concentration-time profiles resulting from QD and BID dosing.
As stated previously, the PK parameters were calculated using nonlinear-mixed-effect model using the software MonoLix 3.1. […]

[2] = human subjects, buccal administration; cited from earlier work

In the case of Cc1cccc([C@H](C)c2cnc[nH]2)c1C [dexmedetomidine, 5-[(1S)-1-(2,3-dimethylphenyl)ethyl]-1H-imidazole], the “selectivity relative to that of clonidine” value (α2-aderenoceptor) is given as “approximately 10 fold”, the “time to maximum concentration in blood” value ([1]; i.m. administration) is given as 1.6 to 1.7 h and the “time to maximum concentration in blood” value ([1]; transdermal administration) is given as 6 h. The “period of absorption at a constant rate” value (clinical) was about 20 h, the “portion of the plasma concentrations below the quantifiable level of 0.02 ng/mL” value (clinical) was 67% and the half-life (clinical; topical or ocular) was about 15 h. The “time of maximum concentration” value [2] was “approximately 1.5 h”.
